# Tests used:
# MerCreMer/ZEG (M/Z) mice = assay: Cardiomyocyte replenishment after myocardial infarction, GFP+ / β-Gal+ cardiomyocyte counting; assay type: in vivo, mouse
# Method: All experiments involving animals were conducted in accordance with the Guide for the Use and Care of Laboratory Animals, and all animal protocols have been approved by National Cheng Kung University. Sca-1^− GFP, B6.Cg-Tg(Ly6a-GFP)G5Dzk/J and EP2^−/−, B6.129-Ptger2^tm/Brey/J mice were obtained from Jackson Laboratory. The double transgenic MerCreMer/ZEG (M/Z) mice were generated by crossbreeding MerCreMer and Z/EG mice (Jackson Laboratory), which have C57BL/6SV129 and C57BL/6J (N7) background strains, respectively. The MerCreMer mice contain a tamoxifen-inducible Cre recombinase fusion protein driven by the cardiomyocyte-specific α-MHC promoter. In Z/EG mice, GFP replace constitutive β-Gal expression after the removal of a LoxP-flanked stop sequence by Cre.
# M/Z mice were subjected to experimental myocardial infarction (MI) one month after the last tamoxifen injection. MI was generated by ligating the left anterior descending coronary artery at 2-3 mm distal to the left atrial appendage. For cell transplantation experiments, intramyocardial injections were performed immediately after coronary ligation. A total of 6×10^5 cardiac Sca-1^+ cells were injected per mouse in two divided injections (5 μl/injection). For BrdU labeling, the mice were subcutaneously implanted with osmotic minipump (Alzet) at the time of surgery and 40 μg/μl of BrdU (Sigma) was administrated. For immunohistological studies, mice were sacrificed and the hearts were harvested at different time points following experimental MI surgery. Cardiac performances were assessed by echocardiography at 28 and 56 days after operation using Vevo 770 (Visualsonics, Toronto, Canada).
# (§1) To induce Cre recombination to achieve GFP labeling of cardiomyocytes, tamoxifen (Sigma) was dissolved in sunflower oil (Sigma) at a concentration of 5 mg/ml. The tamoxifen solution was injected intraperitoneally into M/Z mice daily at a dosage of 40 μg per 1 g body weight for 14 days, and the same dosage was injected twice daily for short-term labeling using methods known in the art (Laugwitz, K.-L. et al. Nature 433, 647-653 (2005)). All experimental conditions were optimized prior to the PGE2, indomethacin and TGF-β Type I Receptor Kinase Inhibitor II (ALK5 Inhibitor II, ALK5i, Merck) treatments. The mice treated with PGE2 or PGI2 (Vegiopoulos, A. et al. Science 328, 1158-1161 (2010)) (both from Sigma) were injected intraperitoneally with 3.33 ng of drug per 1 g of body weight dissolved in absolute ethanol twice daily. For the indomethacin treatment, mice were fed with water containing indomethacin (Sigma, 15 μg/ml) for different periods of time. The indomethacin-containing water was changed every 3 days. The mice subjected to the celecoxib (Lyons, T. R. et al. Nat. Med. 17, 1109-1115 (2011)) (Sigma) treatment were injected intraperitoneally with 5 μg of drug per 1 g of body weight daily. For ALK5i treatment, aged mice were injected intraperitoneally once per day with 1 μg of drug per 1 g of body weight one day before surgery and continuously until day 10 post-MI. Celecoxib and ALK5i were dissolved in ethanol and DMSO, respectively.
# All of the cellular quantifications were performed double-blindly to minimize personal bias. […] For the cardiomyocyte cell counts, 3 sections from each heart, and 2 infarction border zones and 1 remote area from each section were analyzed at a magnification of 200× by light microscopy. Cells with visible sarcomere structures were analyzed, and the average number of cells counted was 171.8±5.8 per photo image. For the small cardiac cell counts, more than five sections from each heart were analyzed at a magnification of 400× using fluorescence microscopy. The average number of cells counted was 17.01±0.99 per photo image, and more than one hundred and fifty cells were analyzed from each heart. As quantification result is the averaged values calculated from the pictures taken from six border zone sections per heart, personal variation has been minimized. […]
# Sca-1 = assay: Quantitative RT-PCR of Sca-1 in infarct zone of MI heart; assay type: in vivo, mouse; conditions: young mice, day 3 post-MI
# Method: as §1
# The total RNA isolated from the ischemic region or remote area of MI hearts was reverse transcribed using the SuperScript III (Invitrogen) system according to the manufacturer's protocol. For quantitative PCR, the SYBR Green reagent (Maestrogen) was used according to the manufacturer's protocol. The analysis of relative gene expression was performed using the 2̂[−delta delta Ct] method and sequence-specific primers designed for semi-quantitative PCR and real-time RT-PCR (FIG. 11).
structure (smiles),measurement,setting,value
Cc1cccc(-c2[nH]ncc2-c2ccc3ncccc3n2)n1 [ALK5i],cardiomyocyte replenishment in comparison with the vehicle control group,"MerCreMer/ZEG (M/Z) mice; aged mice, 1 μg per 1 g i.p. once per day from one day before surgery until day 10 post-MI, day 14 post-MI, P<0.01",restored cardiomyocyte replenishment
"CCCCC[C@H](O)/C=C/[C@@H]1[C@H]2C/C(=C/CCCC(=O)O)O[C@H]2C[C@H]1O [PGI2, prostaglandin I2]",significant increase of cardiomyocyte replenishment compared to the vehicle control (in words),"MerCreMer/ZEG (M/Z) mice; border zone, 3.33 ng per 1 g i.p. twice daily for 14 days",not
COc1ccc2c(c1)c(CC(=O)O)c(C)n2C(=O)c1ccc(Cl)cc1 [indomethacin],Sca-1 expression,Sca-1,repressed
same,stem cell-dependent cardiomyocyte reconstitution,MerCreMer/ZEG (M/Z) mice; administered more than 5 days post-MI (Indo 9 D),no significant effect
same,drop of cardiomyocyte restoration rate,"MerCreMer/ZEG (M/Z) mice; border zone, Indo 14D (1 day before and 14 days after MI), 15 μg/ml in water, P<0.05",about 10%
same,cardiomyocyte replenishment,"MerCreMer/ZEG (M/Z) mice; border zone, given during the first 5 days post-MI (Indo 5 D), P<0.05",sufficient to impair cardiomyocyte replenishment
same,MI-induced cardiomyocyte replenishment,"MerCreMer/ZEG (M/Z) mice; remote area, indomethacin in water",abrogated
